Tests used:
Melanocortin receptor 4 [1] = target: T1, Melanocortin receptor 4 (Homo sapiens, UniProt P32245); experiment: Binding affinity against human melanocortin 4 receptor (hMC4R) using [125I]- ([Nle4]alpha-MSH) as radioligand
Melanocortin receptor 4 [2] = target: T1, Melanocortin receptor 4; experiment: Binding affinity against human melanocortin 4 receptor (hMC4R) using [125I]- agouti related protein (AGRP) as radioligand
Melanocortin receptor 4 [3] = target: T1, Melanocortin receptor 4; experiment: Binding affinity against human melanocortin 4 receptor (hMC4R) using [125I]- ([Nle4]alpha-MSH) as radioligand; NA: Not active
Melanocortin receptor 4 [4] = target: T1, Melanocortin receptor 4; experiment: Binding affinity against human melanocortin 4 receptor (hMC4R) using [125I]- agouti related protein (AGRP) as radioligand; NA: Not active
Melanocortin receptor 4 [5] = target: T1, Melanocortin receptor 4; experiment: Inhibitory activity against hMC4R (human melanocortin receptor) using [125I]-[Nle4] alpha-MSH as radioligand
[6] = target: T2, Melanocyte-stimulating hormone receptor (Homo sapiens, UniProt Q01726); experiment: Inhibitory activity against hMC1R (human melanocortin receptor) using [125I]-[Nle4] alpha-MSH as radioligand
T2 sequence (Q01726 whole entry): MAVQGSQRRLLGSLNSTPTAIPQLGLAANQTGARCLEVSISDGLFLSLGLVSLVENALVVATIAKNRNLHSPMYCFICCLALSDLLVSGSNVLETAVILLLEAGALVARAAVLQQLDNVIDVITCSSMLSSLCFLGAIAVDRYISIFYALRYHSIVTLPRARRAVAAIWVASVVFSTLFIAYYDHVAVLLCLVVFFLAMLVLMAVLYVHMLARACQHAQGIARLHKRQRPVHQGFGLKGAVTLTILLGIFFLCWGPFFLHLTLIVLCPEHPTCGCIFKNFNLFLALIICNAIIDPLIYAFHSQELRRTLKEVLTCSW

[7] = target: T2, Melanocyte-stimulating hormone receptor; experiment: Inhibitory activity against hMC1R (human melanocortin receptor) using [125I]- ASIP Y radioligand
Melanocortin receptor 3 [8] = target: T3, Melanocortin receptor 3 (Homo sapiens, UniProt P41968); experiment: Inhibitory activity against hMC3R (human melanocortin receptor) using [125I]-[Nle4] alpha-MSH as radioligand
T3 sequence (P41968 whole entry): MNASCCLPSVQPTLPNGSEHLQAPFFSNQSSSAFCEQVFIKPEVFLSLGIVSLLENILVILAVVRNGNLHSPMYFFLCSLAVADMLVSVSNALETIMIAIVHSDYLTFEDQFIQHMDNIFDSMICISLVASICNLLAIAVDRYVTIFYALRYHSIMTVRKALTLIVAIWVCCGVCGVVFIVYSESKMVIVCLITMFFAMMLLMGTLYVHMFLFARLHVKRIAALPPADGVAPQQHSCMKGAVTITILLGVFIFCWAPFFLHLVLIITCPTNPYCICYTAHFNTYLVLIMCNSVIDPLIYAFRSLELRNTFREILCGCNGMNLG

Melanocortin receptor 4 [9] = target: T1, Melanocortin receptor 4; experiment: Inhibitory activity against hMC4R (human melanocortin receptor) using I-AGRP as radioligand
Melanocortin receptor 4 [10] = target: T1, Melanocortin receptor 4; experiment: Binding affinity against human melanocortin 4 receptor (hMC4R) using [125I]- NDP-MSH as radioligand
Melanocortin receptor 3 [11] = target: T3, Melanocortin receptor 3; experiment: Inhibitory activity against hMC3R (human melanocortin receptor) using I-AGRP as radioligand

T1 sequence (P32245 whole entry): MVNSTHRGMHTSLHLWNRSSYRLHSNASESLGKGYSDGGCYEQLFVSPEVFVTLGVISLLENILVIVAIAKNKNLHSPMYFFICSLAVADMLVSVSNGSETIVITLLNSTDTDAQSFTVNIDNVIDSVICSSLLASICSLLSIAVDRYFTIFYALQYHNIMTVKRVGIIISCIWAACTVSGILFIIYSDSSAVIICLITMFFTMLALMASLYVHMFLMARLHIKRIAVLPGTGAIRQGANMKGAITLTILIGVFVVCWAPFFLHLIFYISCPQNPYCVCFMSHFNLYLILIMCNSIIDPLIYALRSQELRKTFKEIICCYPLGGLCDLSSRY

C[C@H](c1ccccc1)N(CC(N)=O)C(=O)CN(Cc1ccccc1)C(=O)CNCCCN=C(N)N
IC50 (Melanocortin receptor 4 [1]): > 100 µM | IC50 (Melanocortin receptor 4 [2]): > 100 µM

C[C@@H](c1ccccc1)N(CC(N)=O)C(=O)CN(Cc1ccccc1)C(=O)CNCCCN=C(N)N
IC50 (Melanocortin receptor 4 [3]): Not Active | IC50 (Melanocortin receptor 4 [4]): Not Active

CC(C)(C(N)=O)N(Cc1ccccc1)C(=O)CN(CCc1ccccc1)C(=O)CNCCCN=C(N)N
IC50 (Melanocortin receptor 4 [1]): > 100 µM

C[C@H](c1ccccc1)N(CC(N)=O)C(=O)CN(C(=O)CNCCCNC(=N)N)C(c1ccccc1)c1ccccc1
IC50 (Melanocortin receptor 4 [5]): 3.1 µM | IC50 [6]: 9.1 µM | IC50 [7]: 25 µM | IC50 (Melanocortin receptor 3 [8]): 48 µM | IC50 (Melanocortin receptor 4 [9]): 1.9 µM | IC50 (Melanocortin receptor 4 [10]): 2.1 µM | IC50 (Melanocortin receptor 4 [1]): 3.1 µM | IC50 (Melanocortin receptor 3 [11]): > 50 µM | IC50 (Melanocortin receptor 4 [2]): 1.9 µM

NC(=O)CN(Cc1ccccc1)C(=O)CN(Cc1ccccc1)C(=O)CNCCCN=C(N)N
IC50 (Melanocortin receptor 4 [1]): > 100 µM | IC50 (Melanocortin receptor 4 [2]): > 100 µM

Reference: ChEMBL document CHEMBL1136698, “Peptoid mimics of agouti related protein” (Bioorg Med Chem Lett, 2003)
